The record followed here is US20240358017A1, “SPIDER WEB ERADICATION AND SPIDER REPELLANT COMPOUND AND METHODS OF USE” (DALRAY, LLC., priority 2023, published 2024).

This experiment relates to spider web. The experiment in a line: web eradication / degradation of spider webs by the formulations. Particulars: comparison among the presented formulations; research by the inventors to-date. The arrangement: species or system spiders. An excerpt:
As to the organic acid components of the above formulations, the chemical reaction for web degradation is exemplified by the following: As mentioned, the pH of compositions within the present invention(s) is an important feature of efficacy. […] As compositions of the present invention(s) are fabricated, the constituencies should be adjusted, as needed, to achieve end products of such acidity. Use of the formulations of the present invention is straight forward. In the simplest form, the solutions can be applied by a simple hand-pump garden sprayer. More pressurized, long-reach delivery may be achieved through various motorized pump systems as are readily available in the marketplace. After observed degradation of the target webs, the resulting “clumps” of digested webs may be simply rinsed from any surface with water.

As to Lauramidopropyl Betaine, the “efficacy of web eradication (web degradation)” value was “effectively equivalent performance as Cocamipropyl Betaine”.
